Source: patent US20260250320A1, “LIPIDATED PEPTIDE INHIBITORS OF INTERLEUKIN-23 RECEPTOR” (Janssen Pharmaceutica NV, priority 2023, published 2026)
*1 amine or outer side, *2 acyl side, *3 side chain or, on linkers, in order; H or OH if unused. Where a SMILES comes first, the peptide text is derived from it. Bridges are numbered along the chain shown (N, C = ends). Side-chain parts run from the residue outwards. [ ]: non-standard residue; d: D form. The star is where a group is joined. ξ: configuration not given here. X8 = CC(=O)[C@H](CCCCNC(=O)CC[C@H](NC(=O)CCCCCCCCCCCCCCCCC(=O)O)C(=O)O)N(C)*; X16 = CC(C)(S[*:2])[C@H](CC(=O)CCOCCOCC[N+](C)(C)C)C(=O)[*:1]; Me3N+CH2CH2(OCH2CH2)4CO = C[N+](C)(C)CCOCCOCCOCCOCCC(=O)*; Me3N+(CH2)2O(CH2)2O(CH2)2CO = C[N+](C)(C)CCOCCOCCC(=O)*; PEG12 = NCCOCCOCCOCCOCCOCCOCCOCCOCCOCCOCCOCCOCCC(=O)O; CH2CH2OCH2CH2OCH2CH2NMe3+ = C[N+](C)(C)CCOCCOCC*; Trp(7-Me) = Cc1cccc2c(C[C@H](N)C(=O)O)c[nH]c12; C20 diacid = O=C(O)CCCCCCCCCCCCCCCCCCC(=O)*; C18 diacid = O=C(O)CCCCCCCCCCCCCCCCC(=O)*; X6 = CN(CC[C@H](N[*:1])C(=O)[*:2])[*:3]; γGlu = O=C(O)[C@H](CCC(=O)[*:2])N[*:1]; 2Nal = N[C@@H](Cc1ccc2ccccc2c1)C(=O)O; AEF = NCCOc1ccc(C[C@H](N)C(=O)O)cc1; PEG6 = NCCOCCOCCOCCOCCOCCOCCC(=O)O; X7 = C[N+](C)(C)CCOCCOCCOCCOC(=O)*; 3Pal = N[C@@H](Cc1cccnc1)C(=O)O; Lys(Me) = CNCCCC[C@H](N)C(=O)O; NMeK = CN[C@@H](CCCCN)C(=O)O; Pen = CC(C)(S)[C@H](N)C(=O)O; Thp = NC1(C(=O)O)CCOCC1; ξN = NC(=O)CC(N)C(=O)O; AEEA = NCCOCCOCC(=O)O; Sar = CNCC(=O)O

What was measured:
IL-23R = target: T1, IL-23R (Homo sapiens, UniProt Q5VWK5); assay: IL23R Reporter Assay; format: cell-based; conditions: HEK293 cells containing IL-23R, IL-12Rβ1 and STAT-inducible firefly luciferase reporter; 10 ng/mL IL-23 (EC90); 5 h
T1 construct: HEK293 cells containing IL-23R, IL-12Rβ1 and a firefly luciferase reporter gene driven by a STAT-inducible promoter (Promega); host or cells: HEK293
T1 sequence (Q5VWK5 24-629): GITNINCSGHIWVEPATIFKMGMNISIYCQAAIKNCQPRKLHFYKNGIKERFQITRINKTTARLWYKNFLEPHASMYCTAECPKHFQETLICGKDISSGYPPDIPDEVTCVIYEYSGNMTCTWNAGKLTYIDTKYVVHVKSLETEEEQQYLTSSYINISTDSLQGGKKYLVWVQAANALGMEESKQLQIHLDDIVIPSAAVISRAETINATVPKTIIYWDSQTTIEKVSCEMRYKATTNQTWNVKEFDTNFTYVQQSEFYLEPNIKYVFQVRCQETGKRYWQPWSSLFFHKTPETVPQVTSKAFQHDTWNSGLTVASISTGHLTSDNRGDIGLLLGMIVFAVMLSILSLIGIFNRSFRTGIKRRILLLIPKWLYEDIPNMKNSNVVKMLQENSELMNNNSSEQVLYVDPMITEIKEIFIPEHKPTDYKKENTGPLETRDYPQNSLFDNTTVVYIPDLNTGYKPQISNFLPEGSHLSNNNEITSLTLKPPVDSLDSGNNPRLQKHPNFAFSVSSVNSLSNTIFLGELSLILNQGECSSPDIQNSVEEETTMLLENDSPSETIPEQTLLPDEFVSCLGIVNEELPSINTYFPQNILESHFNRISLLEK
Outline: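 HEK293 cells carrying IL-23R, IL-12Rβ1 and a STAT-driven firefly luciferase reporter (4000 cells/well) received compound, then 10 ng/mL IL-23 solution (EC90), and were incubated for 5 h at 37° C. BioGlo luminescence was normalised to IL-23 alone (0%) and 30 μM control inhibitor (100%). IC50 came from a 4-parameter Hill fit.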

[1] = system: IL-23-stimulated phosphorylated STAT3 in peripheral blood mononuclear cells (PBMCs); assay: PBMC pSTAT3 Assay; format: cell-based; conditions: PBMCs from healthy donors; 30 min preincubation with peptide; IL-23 5 ng/mL for 30 min; phospho-STAT3 by MSD
Outline: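 Healthy-donor PBMCs expanded 4 days on anti-CD3 with 100 ng/mL IL-1β, starved ~4 h in RPMI-0.1% BSA, preincubated 30 min with peptide, then stimulated 30 min at 37 °C with 5 ng/mL IL-23. Lysate pSTAT3 measured by MSD phospho-STAT panel; IC50 derived.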

Structure (SMILES) | IC50 (IL-23R) [nM] | IC50 [1] [nM]
CC(=O)[C@H](CCCCNC(=O)CC[C@H](NC(=O)CCCCCCCCCCCCCCCCC(=O)O)C(=O)O)N(C)C(=O)[C@H](Cc1cccnc1)NC(=O)[C@H](CC(N)=O)NC(=O)[C@H](CCC(=O)O)NC(=O)C1(NC(=O)[C@H](Cc2ccc3ccccc3c2)NC(=O)[C@H](Cc2ccc(OCCN)cc2)NC(=O)[C@H]2NC(=O)[C@H](CCN(C)C(=O)OCCOCCOCCOCC[N+](C)(C)C)NC(=O)[C@H](Cc3c[nH]c4c(C)cccc34)NC(=O)[C@H]([C@@H](C)O)NC(=O)[C@H](CC(=O)N(C)C)NC(=O)[C@@H](NC(=O)CCOCCOCCOCCOCC[N+](C)(C)C)C(C)(C)SSC2(C)C)CCOCC1 [compound 106, cPEG5aCO-Pen(3)-N(N(Me)2)-T-7MeW-Dab(NMecPEG5a)-Pen(3)-AEF-2Nal-THP-E-N-3Pya-NMeK(gEC18OH)-CONH2] ({Me3N+CH2CH2(OCH2CH2)4CO}-[Pen]D(NMe2)T[Trp(7-Me)][X6](X7)[Pen][AEF][2Nal][Thp]EN[3Pal]-X8; disulfide 1-6) | 50 to 500 | 0.5 to 5
CC(=O)N(C)CCCC[C@@H]1NC(=O)[C@H](Cc2c[nH]c3c(C)cccc23)NC(=O)[C@H]([C@@H](C)O)NC(=O)[C@H](CC(=O)N(C)C)NC(=O)[C@@H](NC(=O)CCOCCOCC[N+](C)(C)C)C(C)(C)SSC(C)(C)[C@@H](C(=O)N[C@@H](Cc2ccc(OCCOCCOCC[N+](C)(C)C)cc2)C(=O)N[C@@H](Cc2ccc3ccccc3c2)C(=O)NC2(C(=O)N[C@@H](CCCCN(C)C(C)=O)C(=O)N[C@@H](CC(N)=O)C(=O)N[C@@H](Cc3cccnc3)C(=O)N(C)[C@@H](CCCCNC(=O)CCOCCOCCOCCOCCOCCOCCOCCOCCOCCOCCOCCOCCNC(=O)CC[C@H](NC(=O)CCCCCCCCCCCCCCCCC(=O)O)C(=O)O)C(N)=O)CCOCC2)NC1=O [compound 107, cPEG3aCO-Pen(3)-N(N(Me)2)-T-7MeW-K(NMeAc)-Pen(3)-APEG3F-2Nal-THP-K(NMeAc)-N-3Pya-NMeK(PEG12gEC18OH)-CONH2] ({Me3N+(CH2)2O(CH2)2O(CH2)2CO}-[Pen]D(NMe2)T[Trp(7-Me)][Lys(Me)](Ac)[Pen]Y(CH2CH2OCH2CH2OCH2CH2NMe3+)[2Nal][Thp][Lys(Me)](Ac)N[3Pal][NMeK]([PEG12-γGlu-C18 diacid])-NH2; disulfide 1-6) | < 50 | < 0.5
CC(=O)N(C)CCCC[C@@H]1NC(=O)[C@H](Cc2c[nH]c3c(C)cccc23)NC(=O)[C@H]([C@@H](C)O)NC(=O)[C@H](CC(=O)N(C)C)NC(=O)[C@@H](NC(=O)CCOCCOCCOCCOCCOCCOCCOCCOCCOCCOCCOCCOCCNC(=O)CC[C@H](NC(=O)CCCCCCCCCCCCCCCCC(=O)O)C(=O)O)C(C)(C)SSC(C)(C)[C@@H](C(=O)N[C@@H](Cc2ccc(OCCOCCOCC[N+](C)(C)C)cc2)C(=O)N[C@@H](Cc2ccc3ccccc3c2)C(=O)NC2(C(=O)N[C@@H](CCCCN(C)C(C)=O)C(=O)N[C@@H](CC(N)=O)C(=O)N[C@@H](Cc3cccnc3)C(=O)N(C)CC(=O)N(C)C)CCOCC2)NC1=O [compound 108, HOC18gEPEG12CO-Pen(3)-N(N(Me)2)-T-7MeW-K(NMeAc)-Pen(3)-APEG3F-2Nal-THP-K(NMeAc)-N-3Pya-Sar-CON(Me)2] ({C18 diacid-γGlu-PEG12}-[Pen]D(NMe2)T[Trp(7-Me)][Lys(Me)](Ac)[Pen]Y(CH2CH2OCH2CH2OCH2CH2NMe3+)[2Nal][Thp][Lys(Me)](Ac)N[3Pal][Sar]-NMe2; disulfide 1-6) | < 50 | < 0.5
CC(=O)N(C)CCCC[C@@H]1NC(=O)[C@H](Cc2c[nH]c3c(C)cccc23)NC(=O)[C@H]([C@@H](C)O)NC(=O)[C@H](CC(=O)N(C)C)NC(=O)[C@@H](NC(=O)CCOCCOCCOCCOCCOCCOCCNC(=O)CC[C@H](NC(=O)CCCCCCCCCCCCCCCCC(=O)O)C(=O)O)C(C)(C)SSC(C)(C)[C@@H](C(=O)N[C@@H](Cc2ccc(OCCOCCOCC[N+](C)(C)C)cc2)C(=O)N[C@@H](Cc2ccc3ccccc3c2)C(=O)NC2(C(=O)N[C@@H](CCCCN(C)C(C)=O)C(=O)N[C@@H](CC(N)=O)C(=O)N[C@@H](Cc3cccnc3)C(=O)N(C)CC(=O)N(C)C)CCOCC2)NC1=O [compound 109, HOC18gEPEG6CO-Pen(3)-N(N(Me)2)-T-7MeW-K(NMeAc)-Pen(3)-APEG3F-2Nal-THP-K(NMeAc)-N-3Pya-Sar-CON(Me)2] ({C18 diacid-γGlu-PEG6}-[Pen]D(NMe2)T[Trp(7-Me)][Lys(Me)](Ac)[Pen]Y(CH2CH2OCH2CH2OCH2CH2NMe3+)[2Nal][Thp][Lys(Me)](Ac)N[3Pal][Sar]-NMe2; disulfide 1-6) | < 50 | < 0.5
CC(=O)N(C)CCCC[C@@H]1NC(=O)[C@H](Cc2c[nH]c3c(C)cccc23)NC(=O)[C@H]([C@@H](C)O)NC(=O)[C@H](CC(=O)N(C)C)NC(=O)[C@@H](NC(=O)COCCOCCNC(=O)COCCOCCNC(=O)CC[C@H](NC(=O)CCCCCCCCCCCCCCCCCCC(=O)O)C(=O)O)C(C)(C)SSC(C)(C)[C@@H](C(=O)N[C@@H](Cc2ccc(OCCOCCOCC[N+](C)(C)C)cc2)C(=O)N[C@@H](Cc2ccc3ccccc3c2)C(=O)NC2(C(=O)N[C@@H](CCCCN(C)C(C)=O)C(=O)N[C@@H](CC(N)=O)C(=O)N[C@@H](Cc3cccnc3)C(=O)N(C)CC(=O)N(C)C)CCOCC2)NC1=O [compound 110, HOC20gEPEG2PEG2CO-Pen(3)-N(N(Me)2)-T-7MeW-K(NMeAc)-Pen(3)-APEG3F-2Nal-THP-K(NMeAc)-N-3Pya-Sar-CON(Me)2] ({C20 diacid-γGlu-AEEA-AEEA}-[Pen]D(NMe2)T[Trp(7-Me)][Lys(Me)](Ac)[Pen]Y(CH2CH2OCH2CH2OCH2CH2NMe3+)[2Nal][Thp][Lys(Me)](Ac)N[3Pal][Sar]-NMe2; disulfide 1-6) | 50 to 500 | < 0.5
CC(=O)N(C)CCCC[C@@H]1NC(=O)[C@H](Cc2c[nH]c3c(C)cccc23)NC(=O)[C@H]([C@@H](C)O)NC(=O)[C@H](CC(=O)N(C)C)NC(=O)[C@@H](CC(=O)CCOCCOCC[N+](C)(C)C)C(C)(C)SSC(C)(C)[C@@H](C(=O)N[C@@H](Cc2ccc(OCCOCCOCC[N+](C)(C)C)cc2)C(=O)N[C@@H](Cc2ccc3ccccc3c2)C(=O)NC2(C(=O)N[C@@H](CCCCN(C)C(C)=O)C(=O)NC(CC(N)=O)C(=O)N[C@@H](Cc3cccnc3)C(=O)N(C)[C@@H](CCCCNC(=O)COCCOCCNC(=O)COCCOCCNC(=O)CC[C@H](NC(=O)CCCCCCCCCCCCCCCCCCC(=O)O)C(=O)O)C(N)=O)CCOCC2)NC1=O (some centres unmarked) [compound 112, cPEG3aCO-Pen(3)-N(N(Me)2)-T-7MeW-K(NMeAc)-Pen(3)-APEG3F-2Nal-THP-K(NMeAc)-N-3Pya-NMeK(PEG2PEG2gEC20OH)-CONH2] (D(NMe2)T[Trp(7-Me)][Lys(Me)](Ac)[Pen]Y(CH2CH2OCH2CH2OCH2CH2NMe3+)[2Nal][Thp][Lys(Me)](Ac)[ξN][3Pal][NMeK]([AEEA-AEEA-γGlu-C20 diacid])-NH2; linker N-5 via X16) | 50 to 500 | 0.5 to 5
CC(=O)N(C)CCCC[C@@H]1NC(=O)[C@H](Cc2c[nH]c3c(C)cccc23)NC(=O)[C@H]([C@@H](C)O)NC(=O)[C@H](CC(=O)N(C)C)NC(=O)[C@@H](CC(=O)CCOCCOCC[N+](C)(C)C)C(C)(C)SSC(C)(C)[C@@H](C(=O)N[C@@H](Cc2ccc(OCCOCCOCC[N+](C)(C)C)cc2)C(=O)N[C@@H](Cc2ccc3ccccc3c2)C(=O)NC2(C(=O)N[C@@H](CCCCN(C)C(C)=O)C(=O)NC(CC(N)=O)C(=O)N[C@@H](Cc3cccnc3)C(=O)N(C)[C@@H](CCCCNC(=O)COCCOCCNC(=O)COCCOCCNC(=O)CC[C@H](NC(=O)CCCCCCCCCCCCCCCCC(=O)O)C(=O)O)C(N)=O)CCOCC2)NC1=O (some centres unmarked) [compound 113, cPEG3aCO-Pen(3)-N(N(Me)2)-T-7MeW-K(NMeAc)-Pen(3)-APEG3F-2Nal-THP-K(NMeAc)-N-3Pya-NMeK(PEG2PEG2gEC18OH)-CONH2] (D(NMe2)T[Trp(7-Me)][Lys(Me)](Ac)[Pen]Y(CH2CH2OCH2CH2OCH2CH2NMe3+)[2Nal][Thp][Lys(Me)](Ac)[ξN][3Pal][NMeK]([AEEA-AEEA-γGlu-C18 diacid])-NH2; linker N-5 via X16) | < 50 | < 0.5
